Experimental data taken from article PMC11946789, “Two Amino Acid Substitutions Improve the Pharmacological Profile of the Snake Venom Peptide Mambalgin” (Toxins, 2025).
Where two headings read alike, the source gives them in different places. Bridges are numbered along the chain shown (N, C = ends). Where no end group is shown, it is not given here.

Columns and labels:
ASIC = assay: TEVC recordings, ASIC1-containing channel not specified; type: cell-based, rat; conditions: channel and pH not given; for Hill coefficient: Hill equation fit
Experimental: (§1) Whole-cell ASIC currents were measured using the two-electrode voltage clamp (TEVC) method with a GeneClamp 500 amplifier (Axon Instruments, Union City, NJ, USA). The holding potential maintained at –50 mV. Glass microelectrodes (0.5–2.5 MΩ) were filled with 3 M KCl solution, and ND96 (pH 7.4) was used as the external bath solution. ASIC currents were activated by rapidly switching the external solution from ND96 to either ND96 containing 10 mM MOPS (pH 6.7) or ND96 containing 10 mM MES (pH 5.5). Solution exchange was controlled using a custom-built computer-driven valve system. Data were filtered at 10 Hz and digitized at 100 Hz using an L780M ADC (LCard, Moscow, Russia). Peptides Mamb and Mamb-AL were applied for 30 s at pH 7.4 prior to acid stimulation of the channels.
(§2) Electrophysiological and behavioral data were analyzed using OriginPro 8.6.0 (OriginLab, Washington, DC, USA). […] The rate of current decay was fitted using a single exponential decay function: F(x) = A*eˆ(−x/τdes) + A0, where A0 is the minimal current response and τdes is the decay constant. Statistical significance between the Mamb and Mamb-AL groups was determined using an unpaired t-test. Data are presented as mean ± SEM.

[1] = molecular target: T1, homomeric rASIC1a (rat ASIC1a) (Rattus norvegicus, UniProt P55926); assay: TEVC recordings, homomeric rASIC1a; type: cell-based; conditions: for increase in desensitization rate of rASIC1a: pH 5.5-induced currents, 1 µM peptide, decay constant τdes, single exponential fit, 8 to 17 cells; for Emax: pH stimulus 5.5, inhibition not complete, read-out: maximum effect (inhibition); for IC50: peptide applied 30 s before activation, Xenopus laevis oocytes, mean ± S.E.M., n = 6, read-out: half-maximal inhibitory concentration (IC50)
T1 construct: expressed in transfected cells; host or cells: Xenopus laevis oocytes, mRNA microinjected
T1 sequence (P55926 1-526): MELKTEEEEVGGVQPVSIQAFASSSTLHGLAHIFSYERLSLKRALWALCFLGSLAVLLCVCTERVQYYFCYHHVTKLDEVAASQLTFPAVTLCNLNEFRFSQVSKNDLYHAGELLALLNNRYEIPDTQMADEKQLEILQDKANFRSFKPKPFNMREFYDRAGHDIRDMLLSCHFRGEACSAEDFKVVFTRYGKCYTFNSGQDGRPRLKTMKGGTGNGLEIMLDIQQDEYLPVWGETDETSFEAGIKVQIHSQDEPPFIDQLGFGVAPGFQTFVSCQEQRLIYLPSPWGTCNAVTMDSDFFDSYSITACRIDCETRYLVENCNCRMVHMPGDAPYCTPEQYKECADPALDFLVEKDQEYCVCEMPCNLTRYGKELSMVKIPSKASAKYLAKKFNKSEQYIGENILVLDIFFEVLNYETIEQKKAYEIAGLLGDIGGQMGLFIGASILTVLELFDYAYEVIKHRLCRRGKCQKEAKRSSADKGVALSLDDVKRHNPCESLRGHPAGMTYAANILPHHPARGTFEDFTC
Experimental: The functional activity of Mamb-AL and its comparison with wild-type Mamb were assessed using two-electrode voltage clamp (TEVC) recordings in Xenopus laevis oocytes heterologously expressing rASIC1a.
Figure 3 The inhibitory effect of Mamb-AL on rASIC1a exceeds that of Mamb. (A,C) Representative current traces showing the effects of various concentrations of Mamb (left panels) and Mamb-AL (right panels) on rASIC1a at pH stimuli of 5.5 (A) and 6.7 (C). Currents were induced by pH stimuli after a conditioning pH of 7.4, with peptides applied for 30 s prior to channel activation. The holding potential (Vh) was set to −50 mV, and the interval between applications varied from 1 to 2 min. (B,D) Dose–response curves for the inhibitory effects of Mamb and Mamb-AL on rASIC1a at pH stimuli of 5.5 (B) and 6.7 (D). Each data point represents measurements from six cells. (E) Bar plot showing statistical analysis of IC50 values calculated from the dose–response fits for the peptides’ inhibitory effects on individual cells (n = 6). **** p< 0.001; one-way ANOVA followed by Dunnett’s post hoc test. (F) Statistical analysis of the effects of 1 µM peptide concentration on the decay constant (τdes) at a pH stimulus of 5.5. Each data point represents data from 8 to 17 cells. * p< 0.05, **** p< 0.001 compared with control, paired t-test; & p< 0.05 comparing Mamb and Mamb-AL, unpaired t-test. Data are presented as mean ± S.E.M.
Female X.laevis frogs were anesthetized with 0.17% ethyl 3-amino-benzoate methane sulfonate (MS222). A small ovarian section was surgically removed via an abdominal incision and placed in ND96 medium (96 mM NaCl, 2 mM KCl, 1.8 mM CaCl2, 1 mM MgCl2, and 5 mM HEPES, pH 7.4, adjusted with NaOH). […] Each animal underwent surgeries at intervals of no less than three months. Connective tissue and follicular sheaths were removed by incubating ovarian tissue in calcium-free ND96 medium containing collagenase (1 mg/mL) for 2 h at 21 °C. Healthy, mature stage IV and V oocytes were selected and stored in ND96 medium. PCi plasmids encoding rat ASIC1a, ASIC1b, or ASIC3 served as templates for synthesizing the corresponding messenger RNAs (mRNAs), which were then microinjected into oocytes (0.2–10 ng per oocyte) using a Nanolitre 2000 microinjection system (World Precision Instruments, Sarasota, FL, USA) 16–18 h after oocyte isolation. Injected oocytes were incubated in ND96 medium supplemented with penicillin and gentamicin (50 µg/mL each) at 18 °C for 2–3 days, followed by storage at 14 °C for up to 7 days.
as §1, §2

Sequence	Hill coefficient (ASIC)	increase in desensitization rate of rASIC1a [1] [%]	Emax [1] [%]	maximum inhibition (in words) (ASIC; compared with wild-type peptide)	greater inhibition of homomeric ASIC1a channels ([1]; compared with Mamb, pH not stated)	Mamb-AL outperformed Mamb (inhibition of rASIC1a) ([1]; pH 6.7, relative to Mamb)	IC50 ([1]; pH stimulus 5.5, conditioning pH 7.4, Vh −50 mV) [nM]	complete inhibition ([1]; pH stimulus 6.7) [%]	IC50 ([1]; pH stimulus 6.7, conditioning pH 7.4, Vh −50 mV) [nM]
LKCFQHGKVVTCHRDMKFCYHNTGMPFRNLKLILQGCSSSCSETENNKCCSTDRCNK (disulfide 3-19, 12-37, 41-49, 50-55 (inferred)) [Mamb]	1.54 ± 0.03	24	~90						
LKCYQHGKVVTCHRDAKFCYHNTGLPFRNLKLILQGCSSSCSETENNKCCSTDRCNK (disulfide 3-19, 12-37, 41-49, 50-55 (inferred)) [Mamb-AL]	1.4 ± 0.1	45	~90	unable to fully block channel activity, leading to a reduced maximum inhibition rate	three-fold	more than threefold	62 ± 9	100	25 ± 3
